Article PMC9555310, “Novel inhibitors and activity-based probes targeting serine proteases” (Frontiers in Chemistry, 2022)

How the values were obtained:
[1] = target: T1, neutrophil elastase (NE) (Homo sapiens, UniProt P08246); assay: Off-target study, residual activity after 2 min pre-incubation: NE; type: biochemical; conditions: 2 min incubation, PBS pH 7.4, 37°C; for off-target inhibition of neutrophil elastase: residual activity vs DMF control, NAP830 at concentrations up to 50 μM
T1 construct: purchased Calbiochem
T1 sequence (P08246 30-267): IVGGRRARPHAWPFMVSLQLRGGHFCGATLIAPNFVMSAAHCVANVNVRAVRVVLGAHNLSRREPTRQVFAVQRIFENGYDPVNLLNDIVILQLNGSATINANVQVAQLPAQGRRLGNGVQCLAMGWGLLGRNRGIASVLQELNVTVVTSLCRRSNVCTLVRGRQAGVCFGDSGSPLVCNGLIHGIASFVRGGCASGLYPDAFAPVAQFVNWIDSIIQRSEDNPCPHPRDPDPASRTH
Description: (§1) FIGURE 5 Results of “off-target“ studies. NAP849 (A), NAP800 (B) and NAP830 (C) were tested against trypsin, chymotrypsin, and NE. Samples (approx. 0.01 μg) of each protease were incubated with the indicated concentrations of test compound for 2 min, in PBS, pH 7.4, at 37°C. (D) NAP858, NAP962 and NAP849 were tested against cathepsin B at the indicated concentrations in 0.1 M MES, pH 6.1, containing 1 mM EDTA, for 2 min, at 37°C. Aliquots (approx. 10 μL) of each incubation sample were then added to a fresh sample (990 μL) of PBS for the serine proteases and MES for cathepsin B, containing the appropriate substrate for each protease, to measure their residual activity. Controls incubations were performed in the absence of test compound, but in the presence of an appropriate volume of DMF vehicle used to prepare stock solutions of each inhibitor under study.
(§2) Two elements were investigated regarding possible “off-target” effects–determining the extent of cross-reactivity of each of the new putative ABPs between the various serine protease family members and assessing their collateral inhibitory action against another mechanistic class–the cysteine proteases, using cathepsin B (CTSB) as an exemplar.
(§3) For assays requiring a pre-incubation step enzyme and inhibitor in assay buffer were incubated together, at 37 °C, for 2 min, with gentle agitation. The reaction mixture was then aliquoted (50 μL) in duplicate on a black 96-well microtitre plate followed by addition of substrate to make a final concentration of 50 μM in a total volume of 100 μL. The fluorescence production was then measured as described for the previous procedure.
(§4) Figure ST1. Results of “off-target” studies. NAP559 and NAP533 were tested against chymotrypsin, and NE. Samples (approx. 0.01 mg) of each protease were incubated with the indicated concentrations of test compound for 2 min, in PBS, pH 7.4, at 37 °C. Aliquots (approx. 10 µL) of each incubation sample were then added to a fresh sample (990 µL) of PBS containing the appropriate substrate for each protease, to measure their residual activity. Controls incubations were performed in the absence of test compound, but in the presence of an appropriate volume of DMF vehicle used to prepare stock solutions of each inhibitor under study.

[2] = target: T2, chymotrypsin (Bos taurus, UniProt P00766); assay: Off-target study, residual activity after 2 min pre-incubation: chymotrypsin; type: biochemical, bovine; conditions: 2 min incubation, PBS pH 7.4, 37°C; for off-target inhibition of chymotrypsin: residual activity vs DMF control, NAP830 at concentrations up to 50 μM
T2 construct: purchased Sigma-Aldrich (supplement); Calbiochem; host or cells: bovine pancreas
Description: as §1, §2, §3, §4

[3] = target: T3, trypsin (Sus scrofa, UniProt P00761); assay: Off-target study, residual activity after 2 min pre-incubation: trypsin; type: biochemical, porcine; conditions: 2 min incubation, PBS pH 7.4, 37°C, residual activity vs DMF control
T3 construct: purchased Sigma-Aldrich; host or cells: porcine pancreas
T3 sequence (P00761 9-231): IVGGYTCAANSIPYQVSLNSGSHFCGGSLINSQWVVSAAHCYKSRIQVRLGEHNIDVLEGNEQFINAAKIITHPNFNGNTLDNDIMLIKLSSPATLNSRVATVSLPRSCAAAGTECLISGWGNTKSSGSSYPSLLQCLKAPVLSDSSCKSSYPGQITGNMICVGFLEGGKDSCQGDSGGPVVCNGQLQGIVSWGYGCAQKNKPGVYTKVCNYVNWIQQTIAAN
Description: FIGURE 5 Results of “off-target“ studies. NAP849 (A), NAP800 (B) and NAP830 (C) were tested against trypsin, chymotrypsin, and NE. Samples (approx. 0.01 μg) of each protease were incubated with the indicated concentrations of test compound for 2 min, in PBS, pH 7.4, at 37°C. (D) NAP858, NAP962 and NAP849 were tested against cathepsin B at the indicated concentrations in 0.1 M MES, pH 6.1, containing 1 mM EDTA, for 2 min, at 37°C. Aliquots (approx. 10 μL) of each incubation sample were then added to a fresh sample (990 μL) of PBS for the serine proteases and MES for cathepsin B, containing the appropriate substrate for each protease, to measure their residual activity. Controls incubations were performed in the absence of test compound, but in the presence of an appropriate volume of DMF vehicle used to prepare stock solutions of each inhibitor under study. […]
For assays requiring a pre-incubation step enzyme and inhibitor in assay buffer were incubated together, at 37 °C, for 2 min, with gentle agitation. […] The fluorescence production was then measured as described for the previous procedure.

[4] = target: T4, cathepsin B (CTSB) (Homo sapiens, UniProt P07858); assay: Off-target study, residual activity after 2 min pre-incubation: cathepsin B; type: biochemical; conditions: 25 and 50 μM, 0.1 M MES pH 6.1, 1 mM EDTA, 37°C
T4 construct: purchased R and D Systems
Description: as §1, §2, §3
Assays with Cathepsin B required a pre-activation step of the protease prior to use in the fluorogenic enzyme assays. Cathepsin B was diluted to 10 μg/ml in activation buffer (0.1 M MES, pH 6.1, containing 1 mM EDTA and 2 mM DTT) and left to stand at room temperature for 15 minutes. Activated Cathepsin B was then diluted (1:50 to give 10 ng/50 μl) with assay buffer (activation buffer minus the DTT) prior to use as described previously.

off-target inhibition of trypsin [3] | off-target inhibition of chymotrypsin [2] | off-target inhibition of neutrophil elastase [1] | SMILES | inhibitory activity against CTSB [4] | also measured
no “off-target” or collateral inhibition | no “off-target” or collateral inhibition |  | CC(C)N(CC(=O)NCC(=O)NCC(=O)NCCCOCCOCCOCCCNC(=O)CCCCC1SCC2NC(=O)NC21)C(=O)ON1C(=O)CCC1=O (stereo not drawn) [NAP800, Succinimidoyl-CO-NVal-Gly-Gly-PEG-Biotin] |  | 
 | no “off-target” effects | no “off-target” effects | NCCCCN(CC(=O)NCC(=O)NCC(=O)NCCCOCCOCCOCCCNC(=O)CCCCC1SCC2NC(=O)NC21)C(=O)ON1C(=O)CCC1=O (stereo not drawn) [NAP830, Succinimidoyl-CO-NLys-Gly-Gly-PEG-Biotin] | none of the three carbamates tested exhibited any inhibitory activity against CTSB | 
complete absence of inhibition |  | complete absence of inhibition | O=C(CCCCC1SCC2NC(=O)NC21)NCCCOCCOCCOCCCNC(=O)CNC(=O)CNC(=O)CN(Cc1ccccc1)C(=O)ON1C(=O)CCC1=O (stereo not drawn) [NAP849, Succinimidoyl-CO-NPhe-Gly-Gly-PEG-Biotin] |  | 

More lines, now with the values behind:

SMILES | off-target inhibition of trypsin [3] | off-target inhibition of chymotrypsin [2] | off-target inhibition of neutrophil elastase [1] | inhibitory activity against CTSB [4] | also measured
N=C(N)NCCCN(CC(=O)N1CCC[C@H]1C(=O)N(CC(N)=O)Cc1ccccc1)C(=O)ON1C(=O)CCC1=O [NAP559, Succinimidoyl-CO-NArg-D-Pro-NPhe-NH2] |  |  |  |  | inhibition of NE ([1]; highest concentration (50 μM)): < 5 % of control; inhibition of chymotrypsin ([2]; highest concentration (50 μM)): < 5 % of control
CC(C)N(CC(=O)NCCCOCCOCCOCCCNC(=O)CCCCC1SCC2NC(=O)NC21)C(=O)CN(Cc1ccccc1)C(=O)CN(CCCCN)C(=O)ON1C(=O)CCC1=O (stereo not shown) [NAP962, Succinimidoyl-CO-NLys-NPhe-NVal-PEG-Biotin] |  |  |  | none of the three carbamates tested exhibited any inhibitory activity against CTSB | 
